Common to all, as to format: functional
Test [1] has as its system Krebs. The test is described as follows: (§1) Inhibition of protein synthesis in mouse Krebs cells overexpressing (CAG)33/FF/HCV/Ren mRNA reporter transcript assessed as firefly luciferase production at 100 uM relative to control.
Test [2] deals with Krebs. The experiment in a line: (§2) Inhibition of protein synthesis in mouse Krebs cells overexpressing (CAG)33/FF/HCV/Ren mRNA reporter transcript assessed as renilla luciferase production at 100 uM relative to control.
The nature of test [3]: Inhibition of translation in mouse Krebs cells overexpressing (CAG)33/FF/HCV/Ren mRNA reporter transcript assessed as luciferase production at 100 uM relative to control.
The subject of test [4] is Escherichia coli. The experiment in a line: Inhibition of bacterial protein synthesis in Escherichia coli S30 overexpressing pBEST/luc and [35S]met assessed as [35S]met incorporation.
Test [5] is filed under the species Oryctolagus cuniculus. The experiment in a line: Inhibition of translation initiation in rabbit reticulocyte lysates with [32P]CAT mRNA assessed as 80S initiation complex formation at 50 uM by ribosome binding assay in presence of cycloheximide.
The nature of test [6]: as §1.
A short description of test [7]: as §2.

Here are results for seven compounds from ChEMBL document CHEMBL1146505, “Flavonoid glycosides from Adina racemosa and their inhibitory activities on eukaryotic protein synthesis” (2004).

Activity calls are given as the source filed them. No cut-off for these calls is given here.

With `C[C@@H]1O[C@@H](OC[C@H]2O[C@@H](Oc3c(-c4ccc(O)c(O)c4)oc4cc(O)cc(O)c4c3=O)[C@H](O[C@@H]3O[C@@H](C)[C@H](OC(=O)/C=C/c4ccc(O)c(O)c4)[C@@H](O)[C@H]3O)[C@@H](OC(=O)/C=C/c3ccc(O)cc3)[C@H]2O)[C@H](O)[C@H](O)[C@H]1O`, the result in test [1] and in test [2] was Active. In test [3], the “fold change (FC)” value is listed as 10. In addition, the result in test [4] and in test [5] was inactive.

Take `C[C@@H]1O[C@@H](OC[C@H]2O[C@@H](Oc3c(-c4ccc(O)cc4)oc4cc(O)cc(O)c4c3=O)[C@H](O)[C@@H](O)[C@H]2OC(=O)/C=C/c2ccccc2)[C@H](O)[C@H](O)[C@H]1O`: the “fold change (FC)” value in test [6] and in test [7] was 2 throughout.

On to `C[C@@H]1O[C@@H](OC[C@H]2O[C@@H](Oc3c(-c4ccc(O)c(O)c4)oc4cc(O)cc(O)c4c3=O)[C@H](O[C@@H]3O[C@@H](C)[C@H](OC(=O)/C=C/c4ccc(O)cc4)[C@@H](O)[C@H]3O)[C@@H](O)[C@H]2OC(=O)/C=C/c2ccc(O)cc2)[C@H](O)[C@H](O)[C@H]1O`, for which the result in test [1] and in test [2] was Active. In addition, in test [3], the “fold change (FC)” value was 5.

Consider `C[C@@H]1O[C@@H](OC[C@H]2O[C@@H](Oc3c(-c4ccc(O)c(O)c4)oc4cc(O)cc(O)c4c3=O)[C@H](O)[C@@H](OC(=O)/C=C/c3ccc(O)cc3)[C@H]2O)[C@H](O)[C@H](O)[C@H]1O`, for which the “fold change (FC)” value in test [6] and in test [7] was 2 throughout.

For the compound `C[C@@H]1O[C@@H](OC[C@H]2O[C@@H](Oc3c(-c4ccc(O)cc4)oc4cc(O)cc(O)c4c3=O)[C@H](O[C@@H]3O[C@@H](C)[C@H](OC(=O)/C=C/c4ccc(O)cc4)[C@@H](O)[C@H]3O)[C@@H](O)[C@H]2OC(=O)/C=C/c2ccc(O)cc2)[C@H](O)[C@H](O)[C@H]1O`, the result in test [1] and in test [2] was Active. In addition, the “fold change (FC)” value in test [3] worked out at 5.

With `C[C@@H]1O[C@@H](OC[C@H]2O[C@@H](Oc3c(-c4ccc(O)c(O)c4)oc4cc(O)cc(O)c4c3=O)[C@H](O)[C@@H](O)[C@H]2OC(=O)/C=C/c2ccc(O)cc2)[C@H](O)[C@H](O)[C@H]1O`, the “fold change (FC)” value in test [6] and in test [7] was 2 each time.

Consider `C[C@@H]1O[C@@H](OC[C@H]2O[C@@H](Oc3c(-c4ccc(O)c(O)c4)oc4cc(O)cc(O)c4c3=O)[C@H](O[C@@H]3O[C@@H](C)[C@H](OC(=O)/C=C/c4ccc(O)cc4)[C@@H](O)[C@H]3O)[C@@H](OC(=O)/C=C/c3ccc(O)cc3)[C@H]2O)[C@H](O)[C@H](O)[C@H]1O`, for which the result in test [1] and in test [2] was Active. For the same compound, the “fold change (FC)” value in test [3] is reported as 10.
